Data reported in PubChem BioAssay (NCI).
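In this assay, cells in 96-well plates receive the compound at five concentrations for 48 hours. Endpoints are linearly interpolated between the surrounding concentrations. Definition used: TGI = concentration required for complete inhibition of growth.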

Legend:
Assay in all cases: NCI-60 cell line screen, 48 h
SNB-19 CNS = tested on: SNB-19 CNS
SK-MEL-28 melanoma = tested on: SK-MEL-28 melanoma
OVCAR-5 ovarian = tested on: OVCAR-5 ovarian
SK-MEL-5 melanoma = tested on: SK-MEL-5 melanoma
UACC-257 melanoma = tested on: UACC-257 melanoma
LXFL 529 NSCLC = tested on: LXFL 529 NSCLC
A498 renal = tested on: A498 renal
OVCAR-3 ovarian = tested on: OVCAR-3 ovarian
M14 melanoma = tested on: M14 melanoma
CAKI-1 renal = tested on: CAKI-1 renal
XF 498 CNS = tested on: XF 498 CNS
SF-539 CNS = tested on: SF-539 CNS
786-0 renal = tested on: 786-0 renal
SNB-78 CNS = tested on: SNB-78 CNS
SN12C renal = tested on: SN12C renal
KM12 colon = tested on: KM12 colon
NCI-H522 lung = tested on: NCI-H522 lung
HCT-15 colon = tested on: HCT-15 colon
SF-268 CNS = tested on: SF-268 CNS
HOP-62 NSCLC = tested on: HOP-62 NSCLC
SNB-75 CNS = tested on: SNB-75 CNS
OVCAR-8 ovarian = tested on: OVCAR-8 ovarian
NCI-H460 lung = tested on: NCI-H460 lung
K-562 leukemia = tested on: K-562 leukemia
EKVX NSCLC = tested on: EKVX NSCLC
CCRF-CEM leukemia = tested on: CCRF-CEM leukemia
ACHN renal = tested on: ACHN renal
MALME-3M melanoma = tested on: MALME-3M melanoma
SF-295 CNS = tested on: SF-295 CNS
OVCAR-4 ovarian = tested on: OVCAR-4 ovarian
HCT-116 colon = tested on: HCT-116 colon
HCC-2998 colon = tested on: HCC-2998 colon
A549 NSCLC = tested on: A549 NSCLC
RPMI-8226 leukemia = tested on: RPMI-8226 leukemia
DLD-1 colon = tested on: DLD-1 colon
KM20L2 colon = tested on: KM20L2 colon
U251 CNS = tested on: U251 CNS
HT29 colon = tested on: HT29 colon
UO-31 renal = tested on: UO-31 renal
NCI-H23 lung = tested on: NCI-H23 lung
MOLT-4 leukemia = tested on: MOLT-4 leukemia
HOP-18 NSCLC = tested on: HOP-18 NSCLC
TK-10 renal = tested on: TK-10 renal
SW-620 colon = tested on: SW-620 colon
SK-MEL-2 melanoma = tested on: SK-MEL-2 melanoma
NCI-H226 lung = tested on: NCI-H226 lung
M19-MEL melanoma = tested on: M19-MEL melanoma
SR leukemia = tested on: SR leukemia
DMS 114 small cell lung = tested on: DMS 114 small cell lung
HL-60(TB) leukemia = tested on: HL-60(TB) leukemia
IGROV1 ovarian = tested on: IGROV1 ovarian
UACC-62 melanoma = tested on: UACC-62 melanoma
LOX IMVI melanoma = tested on: LOX IMVI melanoma
RXF 393 renal = tested on: RXF 393 renal
SK-OV-3 ovarian = tested on: SK-OV-3 ovarian
COLO 205 colon = tested on: COLO 205 colon
DMS 273 small cell lung = tested on: DMS 273 small cell lung
HOP-92 NSCLC = tested on: HOP-92 NSCLC

`COc1ccc2ccnc(Cc3ccc(OCc4ccccc4)c(OC)c3)c2c1` gave a TGI (SNB-19 CNS) of over 100 µM, a TGI (SK-MEL-28 melanoma) of 33.4 µM and a TGI (OVCAR-5 ovarian) of over 100 µM. For the same molecule, the TGI (SK-MEL-5 melanoma) was 29.9 µM, the TGI (UACC-257 melanoma) was 44.7 µM and the TGI (LXFL 529 NSCLC) was 80.6 µM. For the same molecule, the TGI (A498 renal) was 54.5 µM, the TGI (OVCAR-3 ovarian) was 34.2 µM and the TGI (M14 melanoma) was 33.2 µM. It also gave a TGI (CAKI-1 renal) of over 100 µM, a TGI (XF 498 CNS) of 31.2 µM and a TGI (SF-539 CNS) of 32.3 µM. For the same molecule, the TGI (786-0 renal) was 44.5 µM, the TGI (SNB-78 CNS) was 67.6 µM and the TGI (SN12C renal) was 29.8 µM. It also gave a TGI (KM12 colon) of 37.1 µM, a TGI (NCI-H522 lung) of 72.7 µM and a TGI (HCT-15 colon) of 44.9 µM. The TGI (SF-268 CNS) was 70.3 µM, the TGI (HOP-62 NSCLC) was 35.3 µM and the TGI (SNB-75 CNS) was 76.7 µM. It also gave a TGI (OVCAR-8 ovarian) of 43.5 µM, a TGI (NCI-H460 lung) of 37.8 µM and a TGI (K-562 leukemia) of over 100 µM. It also gave a TGI (EKVX NSCLC) of 42.7 µM, a TGI (CCRF-CEM leukemia) of 83.6 µM and a TGI (ACHN renal) of 76.3 µM. The TGI (MALME-3M melanoma) was 33.9 µM, the TGI (SF-295 CNS) was 68.1 µM and the TGI (OVCAR-4 ovarian) was 34 µM. It also gave a TGI (HCT-116 colon) of 29.7 µM, a TGI (HCC-2998 colon) of 38.4 µM and a TGI (A549 NSCLC) of 79.5 µM. For the same molecule, the TGI (RPMI-8226 leukemia) was 65.3 µM, the TGI (DLD-1 colon) was over 100 µM and the TGI (KM20L2 colon) was over 100 µM. For the same molecule, the TGI (U251 CNS) was 44.6 µM, the TGI (HT29 colon) was over 100 µM and the TGI (UO-31 renal) was 19.8 µM. It also gave a TGI (NCI-H23 lung) of 53 µM, a TGI (MOLT-4 leukemia) of 46.6 µM and a TGI (HOP-18 NSCLC) of 62.5 µM. The TGI (TK-10 renal) was 93.2 µM, the TGI (SW-620 colon) was over 100 µM and the TGI (SK-MEL-2 melanoma) was 39.7 µM.
For `C/C=C/C1(C)/C(=N\O)C(C)(CCC)C(=O)N1O` (stereo unspecified), the TGI (SNB-19 CNS) was over 100 µM, the TGI (SK-MEL-28 melanoma) was over 100 µM and the TGI (OVCAR-5 ovarian) was over 100 µM. The TGI (SK-MEL-5 melanoma) was over 100 µM, the TGI (UACC-257 melanoma) was over 100 µM and the TGI (LXFL 529 NSCLC) was over 100 µM. For the same molecule, the TGI (A498 renal) was over 100 µM, the TGI (OVCAR-3 ovarian) was over 100 µM and the TGI (M14 melanoma) was over 100 µM. It also gave a TGI (CAKI-1 renal) of over 100 µM, a TGI (XF 498 CNS) of over 100 µM and a TGI (SF-539 CNS) of over 100 µM. The TGI (786-0 renal) was over 100 µM, the TGI (NCI-H226 lung) was over 100 µM and the TGI (SNB-78 CNS) was over 100 µM. The TGI (SN12C renal) was over 100 µM, the TGI (KM12 colon) was over 100 µM and the TGI (NCI-H522 lung) was over 100 µM. For the same molecule, the TGI (HCT-15 colon) was over 100 µM, the TGI (HOP-62 NSCLC) was over 100 µM and the TGI (SNB-75 CNS) was over 100 µM. The TGI (OVCAR-8 ovarian) was over 100 µM, the TGI (NCI-H460 lung) was over 100 µM and the TGI (K-562 leukemia) was over 100 µM. The TGI (EKVX NSCLC) was over 100 µM, the TGI (CCRF-CEM leukemia) was over 100 µM and the TGI (M19-MEL melanoma) was over 100 µM. It also gave a TGI (ACHN renal) of over 100 µM, a TGI (SR leukemia) of over 100 µM and a TGI (DMS 114 small cell lung) of over 100 µM. The TGI (MALME-3M melanoma) was over 100 µM, the TGI (HL-60(TB) leukemia) was over 100 µM and the TGI (IGROV1 ovarian) was over 100 µM. It also gave a TGI (SF-295 CNS) of over 100 µM, a TGI (OVCAR-4 ovarian) of over 100 µM and a TGI (UACC-62 melanoma) of over 100 µM. For the same molecule, the TGI (LOX IMVI melanoma) was over 100 µM, the TGI (HCT-116 colon) was over 100 µM and the TGI (RXF 393 renal) was over 100 µM. For the same molecule, the TGI (HCC-2998 colon) was over 100 µM, the TGI (A549 NSCLC) was over 100 µM and the TGI (SK-OV-3 ovarian) was over 100 µM. For the same molecule, the TGI (RPMI-8226 leukemia) was over 100 µM, the TGI (DLD-1 colon) was over 100 µM and the TGI (COLO 205 colon) was over 100 µM. The TGI (KM20L2 colon) was over 100 µM, the TGI (U251 CNS) was over 100 µM and the TGI (HT29 colon) was over 100 µM. For the same molecule, the TGI (UO-31 renal) was over 100 µM, the TGI (NCI-H23 lung) was over 100 µM and the TGI (DMS 273 small cell lung) was over 100 µM. The TGI (HOP-92 NSCLC) was over 100 µM, the TGI (MOLT-4 leukemia) was over 100 µM and the TGI (TK-10 renal) was over 100 µM. For the same molecule, the TGI (SW-620 colon) was over 100 µM and the TGI (SK-MEL-2 melanoma) was over 100 µM.
